Measurements taken from patent US4060611A, “3-Carbamylbenzyl-7-(phenylglycyl)amino cephalosporin derivatives” (Beecham Group Limited, priority 1975, dated 1977).
In brackets after ≈: the same amount, converted by molar mass.

What was measured:
Assay type in all cases: cell-based
[1] = system: E. coli JT1; test: MIC, growth inhibition on nutrient agar; conditions: Escherichia coli, nutrient agar (medium not given for Examples 6, 7), read-out: minimum inhibitory concentration (MIC)
[2] = system: B. subtilis; test: MIC, growth inhibition on nutrient agar; conditions: Bacillus subtilis, nutrient agar (medium not given for Examples 6, 7), read-out: minimum inhibitory concentration (MIC)
[3] = system: Enterobacter cloacae N1; test: MIC, growth inhibition on nutrient agar; conditions: nutrient agar (medium not stated for Example 6), read-out: minimum inhibitory concentration (MIC)
[4] = system: P. rettgeri; test: MIC, growth inhibition on nutrient agar; conditions: Providencia rettgeri, nutrient agar (medium not given for Examples 6, 7), read-out: minimum inhibitory concentration (MIC)
[5] = system: β-haemolytic strep. CN10; test: MIC, growth inhibition on nutrient agar; conditions: nutrient agar (medium not given for Examples 6, 7), read-out: minimum inhibitory concentration (MIC)
[6] = system: Klebsiella aerogenes A; test: MIC, growth inhibition on nutrient agar; conditions: nutrient agar (medium not given for Examples 6, 7), read-out: minimum inhibitory concentration (MIC)
[7] = system: Staph. aureus Russell; test: MIC, growth inhibition on nutrient agar; conditions: Staphylococcus aureus, nutrient agar (medium not given for Examples 6, 7), read-out: minimum inhibitory concentration (MIC)
[8] = system: Staph. aureus Oxford; test: MIC, growth inhibition on nutrient agar; conditions: Staphylococcus aureus, nutrient agar (medium not given for Examples 6, 7), read-out: minimum inhibitory concentration (MIC)
[9] = system: P. mirabilis C977; test: MIC, growth inhibition on nutrient agar; conditions: Proteus mirabilis, nutrient agar (medium not given for Examples 6, 7), read-out: minimum inhibitory concentration (MIC)
[10] = system: Salm. typhi; test: MIC, growth inhibition on nutrient agar; conditions: Salmonella enterica, read-out: minimum inhibitory concentration (MIC)
[11] = system: Shig. sonnei; test: MIC, growth inhibition on nutrient agar; conditions: Shigella sonnei, read-out: minimum inhibitory concentration (MIC)
[12] = system: P. mirabilis 889; test: MIC, growth inhibition on nutrient agar; conditions: Proteus mirabilis, read-out: minimum inhibitory concentration (MIC)
[13] = system: P. morganii; test: MIC, growth inhibition; conditions: Morganella morganii, medium not stated, read-out: minimum inhibitory concentration (MIC)
[14] = system: P. mirabilis 899; test: MIC, growth inhibition on nutrient agar; conditions: Proteus mirabilis, read-out: minimum inhibitory concentration (MIC)

MIC [4]	MIC [13]	Structure (SMILES)	MIC [1]	MIC [2]	MIC [3]	MIC [5]	MIC [6]	MIC [7]	MIC [8]	MIC [9]	MIC [10]	MIC [11]	MIC [12]	MIC [14]
5 µg/mL		NC(=O)c1ccc(CC2=C(C(=O)O)N3C(=O)[C@@H](NC(=O)C(C(=O)Oc4ccccc4)c4ccsc4)[C@H]3SC2)cc1 (mixture of isomers) [Example 6, 3-(p-Carbamoylbenzyl)-7β-(DL-α-phenoxycarbonyl-3^1-thienylacetamido)ceph-3-em-4-carboxylic acid]	5 µg/mL	25 µg/mL	12.5 µg/mL	25 µg/mL	2.5 µg/mL	25 µg/mL	12.5 µg/mL	12.5 µg/mL				
		NC(=O)c1cccc(CC2=C(C(=O)O)N3C(=O)[C@@H](NC(=O)[C@H](N)c4ccccc4)[C@H]3SC2)c1 [Example 4, 3-(m-Carbamoylbenzyl)-7β-(D-α-phenylglycyl)amino-ceph-3-em-4-carboxylic acid]		0.1 µg/mL (≈ 0.214 µM)		0.05 µg/mL (≈ 0.107 µM)	5 µg/mL (≈ 10.7 µM)	2.5 µg/mL (≈ 5.36 µM)	0.1 µg/mL (≈ 0.214 µM)		10 µg/mL (≈ 21.4 µM)		10 µg/mL (≈ 21.4 µM)	
12.5 µg/mL (≈ 19.1 µM)	5 µg/mL (≈ 7.65 µM)	CN(C(=O)C=Cc1ccccc1)C(=O)N[C@@H](C(=O)N[C@@H]1C(=O)N2C(C(=O)O)=C(Cc3ccc(C(N)=O)cc3)CS[C@H]12)c1ccccc1 [Example 7, 3-(p-Carbamoylbenzyl)-7β-[D-α-(3-cinnamoyl-3-methyluriedo)phenylacetamido]ceph-3-em-4-carboxylic acid]	5 µg/mL (≈ 7.65 µM)	5 µg/mL (≈ 7.65 µM)		0.05 µg/mL (≈ 0.0765 µM)	5 µg/mL (≈ 7.65 µM)	12.5 µg/mL (≈ 19.1 µM)	0.1 µg/mL (≈ 0.153 µM)	5 µg/mL (≈ 7.65 µM)				
		NC(=O)c1ccc(CC2=C(C(=O)O)N3C(=O)[C@@H](NC(=O)[C@H](N)c4ccc(O)cc4)[C@H]3SC2)cc1 [Example 2, 3-(p-Carbamoylbenzyl)-7β-(D-α-p-hydroxyphenylglycyl)amino-ceph-3-em-4-carboxylic acid]	2.5 µg/mL (≈ 5.18 µM)	0.25 µg/mL (≈ 0.518 µM)		0.02 µg/mL (≈ 0.0414 µM)	1 µg/mL (≈ 2.07 µM)	1 µg/mL (≈ 2.07 µM)	0.1 µg/mL (≈ 0.207 µM)	2.5 µg/mL (≈ 5.18 µM)	0.5 µg/mL (≈ 1.04 µM)	2.5 µg/mL (≈ 5.18 µM)		5 µg/mL (≈ 10.4 µM)
		NC(=O)c1ccc(CC2=C(C(=O)O)N3C(=O)[C@@H](NC(=O)[C@H](N)c4ccccc4)[C@H]3SC2)cc1 [Example 1, 3-(p-Carbamoylbenzyl)-7β-(D-α-phenylglycyl)amino-ceph-3-em-4-carboxylic acid]	2.5 µg/mL (≈ 5.36 µM)	0.1 µg/mL (≈ 0.214 µM)		0.01 µg/mL (≈ 0.0214 µM)	1 µg/mL (≈ 2.14 µM)	2.5 µg/mL (≈ 5.36 µM)	0.1 µg/mL (≈ 0.214 µM)		2.5 µg/mL (≈ 5.36 µM)	2.5 µg/mL (≈ 5.36 µM)	2.5 µg/mL (≈ 5.36 µM)	
		NC(=O)c1cc(CC2=C(C(=O)O)N3C(=O)[C@@H](NC(=O)[C@H](N)c4ccccc4)[C@H]3SC2)cc(C(N)=O)c1 [Example 5, 3-(3,5-dicarbamoylbenzyl)-7β-(D-α-phenylglycyl)amino-ceph-3-em-4-carboxylic acid]		2.5 µg/mL (≈ 4.91 µM)		0.5 µg/mL (≈ 0.981 µM)	5 µg/mL (≈ 9.81 µM)	5 µg/mL (≈ 9.81 µM)	0.5 µg/mL (≈ 0.981 µM)		10 µg/mL (≈ 19.6 µM)	10 µg/mL (≈ 19.6 µM)		

Structure (SMILES)	MIC [4]	MIC [13]	MIC [1]	MIC [2]	MIC [3]	MIC [5]	MIC [6]	MIC [7]	MIC [8]	MIC [9]	MIC [10]	MIC [11]	MIC [12]	MIC [14]
NC(=O)c1ccc(CC2=C(C(=O)O)N3C(=O)[C@@H](NC(=O)C(C(=O)Oc4ccccc4)c4ccccc4)[C@H]3SC2)cc1 (mixture of isomers) [Example 3, 3-(p-Carbamoylbenzyl)-7β-(DL-α-phenoxycarbonylphenylacetamido)ceph-3-em-4-carboxylic acid]	5 µg/mL		5 µg/mL	10 µg/mL	10 µg/mL	1 µg/mL	10 µg/mL	10 µg/mL	1 µg/mL	5 µg/mL	10 µg/mL	5 µg/mL		
